Experimental data reported in US9593108B2, “Compounds and methods for antiviral treatment” (PTC Therapeutics, Inc., priority 2009, dated 2017).

What was measured:
[1] = tested on: HCV replicon RNA (GenBank Accession No. AJ242654); assay: HCV Replicon Assay (replicon RNA reduction and/or Fluc reporter signal); type: cell-based, Hepatitis C virus; conditions: Hepatitis C virus, 72 h, replicon-containing cells cultured with test compound for up to 3 days
Method in brief: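 IC50 values mostly reflect the drop in replicon RNA, though Fluc reporter signal may also be used. Compound incubated with cells carrying the bicistronic replicon for as long as 3 days; interferon served as positive control.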

Row | SMILES | IC50 [1] | melting point
1 | C[C@H](NS(=O)(=O)c1ccc(-c2c(C#N)c3cc(Cl)cnc3n2CC2CC2)nc1)C(F)(F)F [Cpd 63, 6-[5-chloro-3-cyano-1-(cyclopropylmethyl)-1H-pyrrolo[2,3-b]pyridin-2-yl]-N-[(2S)-1,1,1-trifluoropropan-2-yl]pyridine-3-sulfonamide] | < 500 nM | 226 to 227 °C
2 | C[C@H](NS(=O)(=O)c1ccc(-c2c(C#N)c3cc(F)cnc3n2CC2CC2)nc1)C(F)(F)F [Cpd 64, 6-[3-cyano-1-(cyclopropylmethyl)-5-fluoro-1H-pyrrolo[2,3-b]pyridin-2-yl]-N-[(2S)-1,1,1-trifluoropropan-2-yl]pyridine-3-sulfonamide] | < 500 nM | 186 to 188 °C
3 | COc1cnc2c(c1)c(C#N)c(-c1ccc(S(=O)(=O)NC(CF)CF)cc1)n2C1CCC1 [Cpd 65, 4-(3-cyano-1-cyclobutyl-5-methoxy-1H-pyrrolo[2,3-b]pyridin-2-yl)-N-(1,3-difluoropropan-2-yl)benzenesulfonamide] | < 500 nM | 215 to 218 °C
4 | COc1cnc2c(c1)c(C#N)c(-c1ccc(S(=O)(=O)N[C@@H](C)C(F)(F)F)cn1)n2CC1CC1 [Cpd 66, 6-[3-cyano-1-(cyclopropylmethyl)-5-methoxy-1H-pyrrolo[2,3-b]pyridin-2-yl]-N-[(2S)-1,1,1-trifluoropropan-2-yl]pyridine-3-sulfonamide] | < 500 nM | 136 to 140 °C
5 | C[C@H](NS(=O)(=O)c1ccc(-c2c(C#N)c3cc(Cl)ncc3n2C2CCC2)nc1)C(F)(F)F [Cpd 67, 6-(5-chloro-3-cyano-1-cyclobutyl-1H-pyrrolo[2,3-c]pyridin-2-yl)-N-[(2S)-1,1,1-trifluoropropan-2-yl]pyridine-3-sulfonamide] | < 500 nM | 180 to 183 °C
6 | Cc1cnc2c(c1)c(C#N)c(-c1ccc(S(=O)(=O)N[C@H](C)C(F)(F)F)cn1)n2C1CCC1 [Cpd 68, 6-(3-cyano-1-cyclobutyl-5-methyl-1H-pyrrolo[2,3-b]pyridin-2-yl)-N-[(2R)-1,1,1-trifluoropropan-2-yl]pyridine-3-sulfonamide] | < 500 nM | 176 to 178 °C
7 | Cc1cnc2c(c1)c(C#N)c(-c1ccc(S(=O)(=O)N[C@@H](C)C(F)(F)F)cn1)n2C1CCC1 [Cpd 69, 6-(3-cyano-1-cyclobutyl-5-methyl-1H-pyrrolo[2,3-b]pyridin-2-yl)-N-[(2S)-1,1,1-trifluoropropan-2-yl]pyridine-3-sulfonamide] | < 500 nM | 177 to 179 °C
8 | Cc1cnc2c(c1)c(C#N)c(-c1ncc(S(=O)(=O)N[C@H](C)C(F)(F)F)cn1)n2C1CCC1 [Cpd 70, 2-(3-cyano-1-cyclobutyl-5-methyl-1H-pyrrolo[2,3-b]pyridin-2-yl)-N-[(2R)-1,1,1-trifluoropropan-2-yl]pyrimidine-5-sulfonamide] | < 500 nM | 186 to 188 °C
9 | Cc1cnc2c(c1)c(C#N)c(-c1ncc(S(=O)(=O)N[C@@H](C)C(F)(F)F)cn1)n2C1CCC1 [Cpd 71, 2-(3-cyano-1-cyclobutyl-5-methyl-1H-pyrrolo[2,3-b]pyridin-2-yl)-N-[(2S)-1,1,1-trifluoropropan-2-yl]pyrimidine-5-sulfonamide] | < 500 nM | 186 to 188 °C
10 | Cc1cnc2c(c1)c(C#N)c(-c1ccc(S(=O)(=O)N[C@H](C)C(F)(F)F)cc1)n2C1CCC1 [Cpd 72, 4-(3-cyano-1-cyclobutyl-5-methyl-1H-pyrrolo[2,3-b]pyridin-2-yl)-N-[(2R)-1,1,1-trifluoropropan-2-yl]benzenesulfonamide] | < 500 nM | 197 to 198 °C
11 | Cc1cnc2c(c1)c(C#N)c(-c1ccc(S(=O)(=O)N[C@@H](C)C(F)(F)F)cc1)n2C1CCC1 [Cpd 73, 4-(3-cyano-1-cyclobutyl-5-methyl-1H-pyrrolo[2,3-b]pyridin-2-yl)-N-[(2S)-1,1,1-trifluoropropan-2-yl]benzenesulfonamide] | < 500 nM | 197 to 198 °C
12 | Cc1cnc2c(c1)c(C#N)c(-c1ccc(S(=O)(=O)NC3(C(F)(F)F)CC3)cn1)n2C1CCC1 [Cpd 74, 6-(3-cyano-1-cyclobutyl-5-methyl-1H-pyrrolo[2,3-b]pyridin-2-yl)-N-[1-(trifluoromethyl)cyclopropyl]pyridine-3-sulfonamide] | < 500 nM | 245 to 247 °C
13 | Cc1cnc2c(c1)c(C#N)c(-c1ccc(S(=O)(=O)NC3(C(F)(F)F)CC3)cc1)n2C1CCC1 [Cpd 75, 4-(3-cyano-1-cyclobutyl-5-methyl-1H-pyrrolo[2,3-b]pyridin-2-yl)-N-[1-(trifluoromethyl)cyclopropyl]benzenesulfonamide] | < 500 nM | 187 to 188 °C
14 | Cc1cnc2c(c1)c(C#N)c(-c1ccc(S(=O)(=O)NC3(C)CC3)cn1)n2C1CCC1 [Cpd 76, 6-(3-cyano-1-cyclobutyl-5-methyl-1H-pyrrolo[2,3-b]pyridin-2-yl)-N-(1-methylcyclopropyl)pyridine-3-sulfonamide] | 500 to 2000 nM | 188 to 189 °C
15 | Cc1cnc2c(c1)c(C#N)c(-c1ccc(S(=O)(=O)NC3(C)CC3)cc1)n2C1CCC1 [Cpd 77, 4-(3-cyano-1-cyclobutyl-5-methyl-1H-pyrrolo[2,3-b]pyridin-2-yl)-N-(1-methylcyclopropyl)benzenesulfonamide] | < 500 nM | 188 to 190 °C
16 | Cc1cnc2c(c1)c(C#N)c(-c1ncc(S(=O)(=O)NC(C)C)cn1)n2C1CCC1 [Cpd 78, 2-(3-cyano-1-cyclobutyl-5-methyl-1H-pyrrolo[2,3-b]pyridin-2-yl)-N-(propan-2-yl)pyrimidine-5-sulfonamide] | < 500 nM | 187 to 190 °C
17 | Cc1cnc2c(c1)c(C#N)c(-c1ccc(S(=O)(=O)NC(C)(C)C(F)(F)F)cc1)n2C1CCC1 [Cpd 79, 4-(3-cyano-1-cyclobutyl-5-methyl-1H-pyrrolo[2,3-b]pyridin-2-yl)-N-(1,1,1-trifluoro-2-methylpropan-2-yl)benzenesulfonamide] | < 500 nM | 180 to 181 °C
18 | C[C@H](NS(=O)(=O)c1ccc(-c2c(C#N)c3cnc(Cl)cc3n2C2CCCC2)nc1)C(F)(F)F [Cpd 80, 6-(6-chloro-3-cyano-1-cyclopentyl-1H-pyrrolo[3,2-c]pyridin-2-yl)-N-[(2S)-1,1,1-trifluoropropan-2-yl]pyridine-3-sulfonamide] | < 500 nM | 235 to 237 °C
19 | C[C@@H](NS(=O)(=O)c1ccc(-c2c(C#N)c3cnc(Cl)cc3n2C2CCCC2)nc1)C(F)(F)F [Cpd 81, 6-(6-chloro-3-cyano-1-cyclopentyl-1H-pyrrolo[3,2-c]pyridin-2-yl)-N-[(2R)-1,1,1-trifluoropropan-2-yl]pyridine-3-sulfonamide] | < 500 nM | 239 to 240 °C
20 | N#Cc1c(-c2ccc(S(=O)(=O)NC(CF)CF)cn2)n(C2CCCC2)c2cc(Cl)ncc12 [Cpd 82, 6-(6-chloro-3-cyano-1-cyclopentyl-1H-pyrrolo[3,2-c]pyridin-2-yl)-N-(1,3-difluoropropan-2-yl)pyridine-3-sulfonamide] | < 500 nM | 231 to 233 °C
21 | N#Cc1c(-c2ccc(S(=O)(=O)NC3(C(F)(F)F)CC3)cn2)n(C2CCCC2)c2cc(Cl)ncc12 [Cpd 83, 6-(6-chloro-3-cyano-1-cyclopentyl-1H-pyrrolo[3,2-c]pyridin-2-yl)-N-[1-(trifluoromethyl)cyclopropyl]pyridine-3-sulfonamide] | < 500 nM | 225 to 227 °C
22 | CC1(NS(=O)(=O)c2ccc(-c3c(C#N)c4cnc(Cl)cc4n3C3CCCC3)nc2)CC1 [Cpd 84, 6-(6-chloro-3-cyano-1-cyclopentyl-1H-pyrrolo[3,2-c]pyridin-2-yl)-N-(1-methylcyclopropyl)pyridine-3-sulfonamide] | < 500 nM | 209 to 211 °C
23 | CC(C)NS(=O)(=O)c1cnc(-c2c(C#N)c3cnc(Cl)cc3n2C2CCCC2)nc1 [Cpd 85, 2-(6-chloro-3-cyano-1-cyclopentyl-1H-pyrrolo[3,2-c]pyridin-2-yl)-N-(propan-2-yl)pyrimidine-5-sulfonamide] | < 500 nM | 249 to 250 °C
24 | N#Cc1c(-c2ncc(S(=O)(=O)NC(CF)CF)cn2)n(C2CCCC2)c2cc(Cl)ncc12 [Cpd 86, 2-(6-chloro-3-cyano-1-cyclopentyl-1H-pyrrolo[3,2-c]pyridin-2-yl)-N-(1,3-difluoropropan-2-yl)pyrimidine-5-sulfonamide] | < 500 nM | 224 to 226 °C
25 | C[C@H](NS(=O)(=O)c1ccc(-c2c(C#N)c3cnc(Cl)cc3n2C2CCCC2)cc1)C(F)(F)F [Cpd 87, 4-(6-chloro-3-cyano-1-cyclopentyl-1H-pyrrolo[3,2-c]pyridin-2-yl)-N-[(2S)-1,1,1-trifluoropropan-2-yl]benzenesulfonamide] | < 500 nM | 238 to 240 °C
26 | C[C@@H](NS(=O)(=O)c1ccc(-c2c(C#N)c3cnc(Cl)cc3n2C2CCCC2)cc1)C(F)(F)F [Cpd 88, 4-(6-chloro-3-cyano-1-cyclopentyl-1H-pyrrolo[3,2-c]pyridin-2-yl)-N-[(2R)-1,1,1-trifluoropropan-2-yl]benzenesulfonamide] | < 500 nM | 239 to 241 °C
27 | N#Cc1c(-c2ccc(S(=O)(=O)NC3(C(F)(F)F)CC3)cc2)n(C2CCCC2)c2cc(Cl)ncc12 [Cpd 89, 4-(6-chloro-3-cyano-1-cyclopentyl-1H-pyrrolo[3,2-c]pyridin-2-yl)-N-[1-(trifluoromethyl)cyclopropyl]benzenesulfonamide] | 2000 to 5000 nM | 288 to 289 °C
28 | Cc1ccc2c(C#N)c(-c3ccc(S(=O)(=O)N[C@@H](C)C(F)(F)F)cc3)n(C3CCC3)c2n1 [Cpd 90, 4-(3-cyano-1-cyclobutyl-6-methyl-1H-pyrrolo[2,3-b]pyridin-2-yl)-N-[(2S)-1,1,1-trifluoropropan-2-yl]benzenesulfonamide] | < 500 nM | 169 to 177 °C
